{"source": "patent EP4768487A1", "about": "“FUSED LACTAM RING COMPOUND AND USE THEREOF” (Chengdu Zenitar Biomedical Technology Co., Ltd., priority 2023, dated 2025)", "key": {"[1]": {"molecular_target": "T1, PARP6 (Homo sapiens, UniProt Q2NL67)", "T1 construct": "purchased BPS 80556", "T1 sequence (Q2NL67 whole entry)": "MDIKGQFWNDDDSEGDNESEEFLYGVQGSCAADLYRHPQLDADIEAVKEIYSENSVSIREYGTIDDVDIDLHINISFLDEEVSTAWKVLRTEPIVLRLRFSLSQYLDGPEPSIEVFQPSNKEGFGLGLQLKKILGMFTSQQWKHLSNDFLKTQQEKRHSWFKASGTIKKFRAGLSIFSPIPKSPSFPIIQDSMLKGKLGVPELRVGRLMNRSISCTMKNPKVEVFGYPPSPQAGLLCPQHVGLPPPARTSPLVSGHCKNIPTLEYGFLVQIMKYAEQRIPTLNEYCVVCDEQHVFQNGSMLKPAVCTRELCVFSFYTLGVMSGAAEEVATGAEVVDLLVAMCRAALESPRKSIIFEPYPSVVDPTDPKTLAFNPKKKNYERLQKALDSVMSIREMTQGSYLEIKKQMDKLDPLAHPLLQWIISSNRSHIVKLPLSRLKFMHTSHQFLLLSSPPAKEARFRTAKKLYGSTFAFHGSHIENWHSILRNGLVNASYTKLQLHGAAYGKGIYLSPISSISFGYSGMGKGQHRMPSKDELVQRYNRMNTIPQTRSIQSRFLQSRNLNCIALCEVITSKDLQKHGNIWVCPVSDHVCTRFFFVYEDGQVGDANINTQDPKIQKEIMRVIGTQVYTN", "assay": "Assay for selectivity for PARP6 (ELISA, chemiluminescence)", "type": "biochemical", "protocol": "Main instruments and reagents for PARP6 assay\nExperimental procedures: The enzymatic activity of PARP6 was assayed by the ELISA method. […] The IC50 values of the compounds were calculated using the nonlinear fitting formula in GraphPad software."}, "[2]": {"molecular_target": "T2, PARP1 (Homo sapiens, UniProt P09874)", "T2 construct": "purchased BPS 80501", "T2 sequence (P09874 whole entry)": "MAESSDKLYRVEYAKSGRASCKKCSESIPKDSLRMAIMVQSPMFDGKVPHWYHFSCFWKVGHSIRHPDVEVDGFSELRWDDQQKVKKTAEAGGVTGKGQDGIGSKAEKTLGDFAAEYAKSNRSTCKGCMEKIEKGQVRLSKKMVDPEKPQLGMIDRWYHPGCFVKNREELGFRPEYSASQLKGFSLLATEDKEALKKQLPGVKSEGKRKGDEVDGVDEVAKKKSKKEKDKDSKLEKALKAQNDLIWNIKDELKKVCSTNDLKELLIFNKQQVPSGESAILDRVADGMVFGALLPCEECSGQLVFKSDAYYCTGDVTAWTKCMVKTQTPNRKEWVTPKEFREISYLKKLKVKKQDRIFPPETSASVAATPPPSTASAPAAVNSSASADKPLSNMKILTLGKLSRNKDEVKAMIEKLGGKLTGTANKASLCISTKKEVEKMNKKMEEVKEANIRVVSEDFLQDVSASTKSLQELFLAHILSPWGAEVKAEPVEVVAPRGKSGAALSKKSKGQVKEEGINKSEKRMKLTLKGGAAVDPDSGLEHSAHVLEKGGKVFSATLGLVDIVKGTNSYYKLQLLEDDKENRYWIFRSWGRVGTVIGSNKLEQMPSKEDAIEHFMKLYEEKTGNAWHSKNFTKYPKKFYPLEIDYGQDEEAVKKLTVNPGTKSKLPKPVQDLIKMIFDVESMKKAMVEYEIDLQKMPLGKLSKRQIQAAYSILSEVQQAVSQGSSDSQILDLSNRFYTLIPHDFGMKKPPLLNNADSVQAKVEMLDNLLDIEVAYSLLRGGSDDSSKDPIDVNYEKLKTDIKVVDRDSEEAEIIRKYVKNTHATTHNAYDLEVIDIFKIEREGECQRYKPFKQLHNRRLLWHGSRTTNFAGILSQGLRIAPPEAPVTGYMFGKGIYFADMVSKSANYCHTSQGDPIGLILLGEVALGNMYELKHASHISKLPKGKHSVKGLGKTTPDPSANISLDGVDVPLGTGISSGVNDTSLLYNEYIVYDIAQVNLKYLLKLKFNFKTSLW", "assay": "PARP1 enzyme assay (histone-coated plate, chemiluminescence)", "type": "biochemical", "conditions": "PARP1 0.02 nM, DNA 0.8 nM, NAD+ 3.5 µM; read-out: PARP-1 IC50"}, "[3]": {"assay": "Cerebrospinal fluid and plasma distribution in vivo", "conditions": "rat, male rats, intravenous 5 mg/kg, n = 1", "protocol": "Experimental procedures: The compound was weighed out, a small amount of DMSO was added, and then a sodium chloride solution for injection was added to prepare a 5 mg·mL^-1 compound solution for later administration. […] 10 µL of the plasma and 10 µL of the cerebrospinal fluid were each added to a centrifuge tube, and 40 µL of acetonitrile containing 20 ng·mL^-1 internal standard SAHA was added for precipitation. […] The supernatant was collected and transferred to a sample vial for later analysis. Range of standard curve: 1-1000 ng·mL^-1."}, "[4]": {"test_system": "MDA-MB-436 breast cancer subcutaneous xenograft tumor model", "assay": "In vivo pharmacodynamic study of compound 53 in MDA-MB-436 subcutaneous xenograft tumor model", "parameters": "species or system NOD/SCID mice", "conditions": "oral once daily, 30 days; for inhibitory effects on tumor growth (in words): compared to blank control"}, "[5]": {"assay": "Pharmacokinetic evaluation in Balb/c mice", "type": "in vivo", "conditions": "1mg/kg, PO", "protocol": "Experimental objective: To understand the pharmacokinetic profiles of the compounds. Experimental basis: Technical guidelines for non-clinical pharmacokinetic studies of chemical drugs, 2014.\nExperimental scheme: The pharmacokinetic profiles of the compounds were investigated by intravenous administration (1 mg·kg^-1) and intragastric administration (1 mg·kg^-1) in Balb/c mice.\nSample preparation: About 0.2 mg of the compound was weighed out and dissolved in 10 µL of DMSO, and then a sodium chloride solution for injection was added to prepare a 0.1 mg·mL^-1 compound solution for later administration.\nThree of the mice were subjected to intravenous administration (IV) at 1 mg·kg^-1, while the other three were subjected to intragastric administration (PO) at 1 mg·kg^-1. About 0.05 mL of blood was collected at 5 min, 15 min, 30 min, 1 h, 2 h, 4 h, 6 h, 8 h, 10 h, 24 h, and 48 h after administration. The collected blood was centrifuged at 3500 rpm for 15 min. The supernatant plasma was then collected and cryopreserved at -40 °C for later analysis. The plasma concentration was quantitatively analyzed using the LC-MS/MS method, and pharmacokinetic parameters such as […] (Cmax), area under plasma concentration-time curve (AUC(0-t)), half-life (T1/2), clearance rate (CL), tissue distribution (Vdss), and bioavailability (F) were calculated. Table 18. Results of pharmacokinetic test of compounds in Balb/c mice"}, "[6]": {"test_system": "BRCA-mutated MDA-MB-436 cells", "assay": "Anti-proliferative activity against cells (CCK8): MDA-MB-436", "type": "cell-based", "conditions": "Homo sapiens, 72 h + 96 h culture"}, "[7]": {"test_system": "BRCA wild-type DLD-1 cells", "assay": "Anti-proliferative activity against cells (CCK8): DLD-1", "type": "cell-based", "conditions": "Homo sapiens, 72 h + 96 h culture", "method_in_brief": "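DLD-1 cells (1000/well) in RPMI-1640 with 10% FBS, treated 24 h after plating with PARPi at 0, 1 or 10 µM final. Cultured 72 h, medium exchanged with re-added PARPi, then a further 96 h; read-out by CCK8.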"}, "[8]": {"conditions": "cerebrospinal fluid, read-out: Cerebrospinal fluid"}}, "note": "Read-outs that look alike come from different tables or passages of the source."}
{"smiles": "CNC(=O)c1ccc(N2CCN(CC3Cc4[nH]c(=O)c(C(F)F)cc4CO3)CC2)c(F)n1", "note": "(stereo not shown) [Example 43, 5-(4-((3-(Difluoromethyl)-2-oxo-1,5,7,8-tetrahydro-2H-pyrano[4,3-b]pyridin-7-yl)methyl)piperazin-1-yl)-6-fluoro-N-methylpicolinamide]", "values": [{"measurement": "IC50", "setting": "[1]", "result": "> 10000", "unit": "nM"}, {"measurement": "inhibitory effects on PARP6 (in words)", "setting": "[1]; conclusion of Table 21", "result": "Conclusion: Compounds 2, 43, etc., of the present disclosure exhibited relatively weak inhibitory effects on PARP6, demonstrating high selectivity."}, {"measurement": "IC50", "setting": "[2]", "result": "50 to 500", "unit": "nM"}, {"measurement": "concentration at 0.25 h", "setting": "[3]; [8]", "result": 16, "unit": "ng/g"}, {"measurement": "concentration at 2 h", "setting": "[3]; [8]", "result": 3, "unit": "ng/g"}, {"measurement": "concentration at 0.25 h", "setting": "[3]; plasma, read-out: Plasma", "result": 8030, "unit": "ng/mL"}, {"measurement": "concentration at 2 h", "setting": "[3]; plasma, read-out: Plasma", "result": 7690, "unit": "ng/mL"}]}
{"smiles": "CCc1cc2ncc(CN3CCN(c4ccc(C(=O)NC)nc4)CC3)cc2[nH]c1=O", "note": "[AZD5305, reference compound]", "values": [{"measurement": "IC50", "setting": "[1]", "result": 8190, "unit": "nM"}]}
{"smiles": "CNC(=O)c1ccc(N2CCN(Cc3ccc4nc(C)c(=O)[nH]c4c3F)CC2)c(F)n1", "note": "[AZD9574, reference compound]", "values": [{"measurement": "inhibitory effects on tumor growth (in words)", "setting": "[4]; 3 mg/kg", "result": "significant inhibitory effects on tumor growth"}]}
{"smiles": "CCc1nc2c([nH]c1=O)C[C@@H](CN1CC=C(c3ccc(C(=O)NC)nc3F)CC1)CC2", "note": "[Example 53, (S)-1'-((2-Ethyl-3-oxo-3,4,5,6,7,8-hexahydroquinoxalin-6-yl)methyl)-2-fluoro-N-methyl-1',2', 3',6'-tetrahydro-[3,4'-bipyridine]-6-carboxamide]", "values": [{"measurement": "anti-tumor effect compared with the AZD9574 (3 mg/kg) group (in words)", "setting": "[4]; 1 mg/kg", "result": "superior"}, {"measurement": "inhibitory effects on tumor growth (in words)", "setting": "[4]; 1 mg/kg", "result": "significant inhibitory effects on tumor growth"}, {"measurement": "CL", "setting": "[5]", "result": 0.67, "unit": "mL/min/kg"}, {"measurement": "Vdss", "setting": "[5]", "result": 0.42, "unit": "L/kg"}, {"measurement": "AUC(0-t)", "setting": "[5]; male, mouse, plasma", "result": 22300, "unit": "ng·h/mL"}, {"measurement": "Cmax", "setting": "[5]; male, mouse, plasma", "result": 3650, "unit": "ng/mL"}, {"measurement": "half-life", "setting": "[5]; male, mouse, plasma", "result": 7.1, "unit": "h"}, {"measurement": "IC50", "setting": "[6]", "result": 1.5, "unit": "nM"}, {"measurement": "IC50", "setting": "[2]", "result": "≤ 50", "unit": "nM"}, {"measurement": "IC50", "setting": "[7]", "result": "> 1000", "unit": "nM"}]}
